Measurements: US20050112573A1, “Method of detecting toxic substance” (priority 2001, published 2005)

System: yeast genes (level of expressed mRNA)
Assay: DNA chip analysis of expressed mRNA of yeast genes after 2 h culture with a toxic chemical substance
Format: cell-based, Saccharomyces cerevisiae S288C
Outline: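 S. cerevisiae S288C grown at 25° C in YPD; toxicant added at log phase at growth-inhibitory, non-lethal levels for 2 h, untreated cells as control. Poly(A) mRNA reverse-transcribed with Cy3/Cy5-dUTP, hybridized to whole-genome chip at 65° C >12 h; value is fluorescence ratio versus untreated.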

Compound: CCCCCCCCCCCCOS(=O)(=O)[O-].[Na+] [(18), sodium lauryl sulfate]
- level of expressed mRNA in the presence of chemical substance/in its absence (gene YAL012W): 0.8
- The level of expressed mRNA in the presence of chemical substance/absence: YAL014C (gene YAL014C): 1.1
- The level of expressed mRNA in the presence of chemical substance/absence: YAL017W (gene YAL017W): 1.2
- The level of expressed mRNA in the presence of chemical substance/absence: YAL018C (gene YAL018C): 0.9
- level of expressed mRNA in the presence of chemical substance/in its absence (gene YAL038W): 1.0
- level of expressed mRNA in the presence of chemical substance/in its absence (gene YAL044C): 1.8
- The level of expressed mRNA in the presence of chemical substance/absence: YAL049C (gene YAL049C): 1.8
- level of expressed mRNA in the presence of chemical substance/in its absence (gene YAL054C): 1.4
- The level of expressed mRNA in the presence of chemical substance/absence: YAR047C (gene YAR047C): 1.0
- The level of expressed mRNA in the presence of chemical substance/absence: YAR064W (gene YAR064W): 0.9
- level of expressed mRNA in the presence of chemical substance/in its absence (gene YAR071W): 1.6
- level of expressed mRNA in the presence of chemical substance/in its absence (gene YBL001C): 1.8
- The level of expressed mRNA in the presence of chemical substance/absence: YBL044W (gene YBL044W): 0.8
- The level of expressed mRNA in the presence of chemical substance/absence: YBL100C (gene YBL100C): 0.8
- The level of expressed mRNA in the presence of chemical substance/absence: YBR012C (gene YBR012C): 1.2
- The level of expressed mRNA in the presence of chemical substance/absence: YBR013C (gene YBR013C): 1.1
- level of expressed mRNA in the presence of chemical substance/in its absence (gene YBR014C): 1.6
- level of expressed mRNA in the presence of chemical substance/in its absence (gene YBR023C): 0.9
- level of expressed mRNA in the presence of chemical substance/in its absence (gene YBR029C): 0.8
- level of expressed mRNA in the presence of chemical substance/in its absence (gene YBR035C): 1.9
- level of expressed mRNA in the presence of chemical substance/in its absence (gene YBR050C): 1.8
- The level of expressed mRNA in the presence of chemical substance/absence: YBR051W (gene YBR051W): 0.8
- The level of expressed mRNA in the presence of chemical substance/absence: YBR063C (gene YBR063C): 1.2
- The level of expressed mRNA in the presence of chemical substance/absence: YBR066C (gene YBR066C): 1.2
- level of expressed mRNA in the presence of chemical substance/in its absence (gene YBR068C): 1.3
- level of expressed mRNA in the presence of chemical substance/in its absence (gene YBR111C): 2.4
- The level of expressed mRNA in the presence of chemical substance/absence: YBR124W (gene YBR124W): 0.9
- The level of expressed mRNA in the presence of chemical substance/absence: YBR129C (gene YBR129C): 1.5
- level of expressed mRNA in the presence of chemical substance/in its absence (gene YBR145W): 2.0
- The level of expressed mRNA in the presence of chemical substance/absence: YBR162C (gene YBR162C): 1.3
- level of expressed mRNA in the presence of chemical substance/in its absence (gene YBR183W): 2.4
- level of expressed mRNA in the presence of chemical substance/in its absence (gene YBR222C): 0.9
- The level of expressed mRNA in the presence of chemical substance/absence: YBR255W (gene YBR255W): 1.0
- The level of expressed mRNA in the presence of chemical substance/absence: YBR281C (gene YBR281C): 0.8
- The level of expressed mRNA in the presence of chemical substance/absence: YBR287W (gene YBR287W): 1.9
- level of expressed mRNA in the presence of chemical substance/in its absence (gene YBR299W): 1.1
- level of expressed mRNA in the presence of chemical substance/in its absence (gene YCL009C): 0.8
- The level of expressed mRNA in the presence of chemical substance/absence: YCL044C (gene YCL044C): 0.6
- The level of expressed mRNA in the presence of chemical substance/absence: YCL056C (gene YCL056C): 1.5
- level of expressed mRNA in the presence of chemical substance/in its absence (gene YCL064C): 0.3
- The level of expressed mRNA in the presence of chemical substance/absence: YCR007C (gene YCR007C): 2.1
- level of expressed mRNA in the presence of chemical substance/in its absence (gene YCR037C): 0.9
- level of expressed mRNA in the presence of chemical substance/in its absence (gene YCR048W): 0.8
- level of expressed mRNA in the presence of chemical substance/in its absence (gene YCR098C): 1.6
- level of expressed mRNA in the presence of chemical substance/in its absence (gene YDL022W): 1.4
- The level of expressed mRNA in the presence of chemical substance/absence: YDL046W (gene YDL046W): 1.6
- The level of expressed mRNA in the presence of chemical substance/absence: YDL089W (gene YDL089W): 1.1
- The level of expressed mRNA in the presence of chemical substance/absence: YDL173W (gene YDL173W): 1.8
- The level of expressed mRNA in the presence of chemical substance/absence: YDL193W (gene YDL193W): 1.4
- The level of expressed mRNA in the presence of chemical substance/absence: YDL233W (gene YDL233W): 1.4
- level of expressed mRNA in the presence of chemical substance/in its absence (gene YDR009W): 1.0
- level of expressed mRNA in the presence of chemical substance/in its absence (gene YDR019C): 1.6
- The level of expressed mRNA in the presence of chemical substance/absence: YDR071C (gene YDR071C): 1.6
- The level of expressed mRNA in the presence of chemical substance/absence: YDR078C (gene YDR078C): 1.2
- The level of expressed mRNA in the presence of chemical substance/absence: YDR090C (gene YDR090C): 1.1
- The level of expressed mRNA in the presence of chemical substance/absence: YDR109C (gene YDR109C): 0.9
- The level of expressed mRNA in the presence of chemical substance/absence: YDR128W (gene YDR128W): 0.9
- The level of expressed mRNA in the presence of chemical substance/absence: YDR133C (gene YDR133C): 0.9
- The level of expressed mRNA in the presence of chemical substance/absence: YDR140W (gene YDR140W): 1.3
- The level of expressed mRNA in the presence of chemical substance/absence: YDR221W (gene YDR221W): 1.0
- The level of expressed mRNA in the presence of chemical substance/absence: YDR250C (gene YDR250C): 0.9
- The level of expressed mRNA in the presence of chemical substance/absence: YDR271C (gene YDR271C): 0.9
- The level of expressed mRNA in the presence of chemical substance/absence: YDR278C (gene YDR278C): 0.8
- The level of expressed mRNA in the presence of chemical substance/absence: YDR281C (gene YDR281C): 1.2
- The level of expressed mRNA in the presence of chemical substance/absence: YDR316W (gene YDR316W): 0.5
- The level of expressed mRNA in the presence of chemical substance/absence: YDR338C (gene YDR338C): 1.0
- The level of expressed mRNA in the presence of chemical substance/absence: YDR366C (gene YDR366C): 0.9
- level of expressed mRNA in the presence of chemical substance/in its absence (gene YDR380W): 0.8
- level of expressed mRNA in the presence of chemical substance/in its absence (gene YDR410C): 1.0
- The level of expressed mRNA in the presence of chemical substance/absence: YDR421W (gene YDR421W): 0.8
- The level of expressed mRNA in the presence of chemical substance/absence: YDR425W (gene YDR425W): 1.2
- The level of expressed mRNA in the presence of chemical substance/absence: YDR485C (gene YDR485C): 1.0
- level of expressed mRNA in the presence of chemical substance/in its absence (gene YDR487C): 1.9
- level of expressed mRNA in the presence of chemical substance/in its absence (gene YDR502C): 0.9
- The level of expressed mRNA in the presence of chemical substance/absence: YDR504C (gene YDR504C): 1.2
- level of expressed mRNA in the presence of chemical substance/in its absence (gene YEL011W): 2.5
- level of expressed mRNA in the presence of chemical substance/in its absence (gene YEL020C): 1.3
- The level of expressed mRNA in the presence of chemical substance/absence: YEL044W (gene YEL044W): 1.0
- level of expressed mRNA in the presence of chemical substance/in its absence (gene YER026C): 3.2
- level of expressed mRNA in the presence of chemical substance/in its absence (gene YER069W): 0.9
- The level of expressed mRNA in the presence of chemical substance/absence: YER092W (gene YER092W): 1.7
- The level of expressed mRNA in the presence of chemical substance/absence: YER182W (gene YER182W): 1.2
- The level of expressed mRNA in the presence of chemical substance/absence: YFL042C (gene YFL042C): 1.2
- level of expressed mRNA in the presence of chemical substance/in its absence (gene YFR015C): 1.2
- The level of expressed mRNA in the presence of chemical substance/absence: YFR026C (gene YFR026C): 1.1
- The level of expressed mRNA in the presence of chemical substance/absence: YFR056C (gene YFR056C): 0.8
- level of expressed mRNA in the presence of chemical substance/in its absence (gene YGL001C): 2.1
- level of expressed mRNA in the presence of chemical substance/in its absence (gene YGL022W): 0.7
- level of expressed mRNA in the presence of chemical substance/in its absence (gene YGL039W): 1.0
- The level of expressed mRNA in the presence of chemical substance/absence: YGL041C (gene YGL041C): 1.1
- The level of expressed mRNA in the presence of chemical substance/absence: YGL045W (gene YGL045W): 1.2
- The level of expressed mRNA in the presence of chemical substance/absence: YGL057C (gene YGL057C): 1.1
- The level of expressed mRNA in the presence of chemical substance/absence: YGL088W (gene YGL088W): 0.7
- level of expressed mRNA in the presence of chemical substance/in its absence (gene YGL104C): 1.3
- level of expressed mRNA in the presence of chemical substance/in its absence (gene YGL126W): 0.9
- level of expressed mRNA in the presence of chemical substance/in its absence (gene YGL134W): 1.3
- level of expressed mRNA in the presence of chemical substance/in its absence (gene YGL154C): 1.1
- The level of expressed mRNA in the presence of chemical substance/absence: YGL183C (gene YGL183C): 1.0
- level of expressed mRNA in the presence of chemical substance/in its absence (gene YGL209W): 1.5
- The level of expressed mRNA in the presence of chemical substance/absence: YGL223C (gene YGL223C): 1.0
- level of expressed mRNA in the presence of chemical substance/in its absence (gene YGL253W): 0.8
- The level of expressed mRNA in the presence of chemical substance/absence: YGR038W (gene YGR038W): 1.1
- level of expressed mRNA in the presence of chemical substance/in its absence (gene YGR060W): 1.6
- The level of expressed mRNA in the presence of chemical substance/absence: YGR139W (gene YGR139W): 0.8
- The level of expressed mRNA in the presence of chemical substance/absence: YGR156W (gene YGR156W): 0.8
- The level of expressed mRNA in the presence of chemical substance/absence: YGR198W (gene YGR198W): 1.0
- The level of expressed mRNA in the presence of chemical substance/absence: YGR210C (gene YGR210C): 0.7
- The level of expressed mRNA in the presence of chemical substance/absence: YGR211W (gene YGR211W): 0.5
- The level of expressed mRNA in the presence of chemical substance/absence: YGR237C (gene YGR237C): 1.0
- The level of expressed mRNA in the presence of chemical substance/absence: YGR243W (gene YGR243W): 4.4
- The level of expressed mRNA in the presence of chemical substance/absence: YGR250C (gene YGR250C): 2.1
- The level of expressed mRNA in the presence of chemical substance/absence: YGR266W (gene YGR266W): 1.0
- The level of expressed mRNA in the presence of chemical substance/absence: YGR277C (gene YGR277C): 1.1
- level of expressed mRNA in the presence of chemical substance/in its absence (gene YGR282C): 1.5
